One assay deals with renal cancer cell lines. Put plainly: Comparison test versus MS275: 7 renal cancer cell lines. Conditions: in 4 cell lines of 7 renal cancer cell lines screened. The format is cell-based. An excerpt:
7 renal cancer cell lines were screened against both compound (4) and MS275.

The next assay has as its system MDA-MB-231/ATCC. Put plainly: Screening against cancer cell lines: MDA-MB-231/ATCC (Breast). The format is cell-based. An excerpt: Screening of Benzamide Derivatives Against Cancer Cell Lines Tables 1 and 2 tabulate by way of example the results obtained for compounds (4) and (6).
7 breast cancer cell lines were screened against both compound (4) and MS275.

Read-outs that look alike come from different tables or passages of the source.

By TGI is commonly meant the concentration at which net growth stops. A low value points to more potent growth arrest. Turning to `C=C(CN1CCc2ccccc2C1)c1ccc(C(=O)Nc2ccccc2N)cc1` [Compound (4), N-(2-Amino-phenyl)-4-[1-(3,4-dihydroisoquinolin-2(1H)-ylmethyl)vinyl]benzamide], the “potency over MS275” value in the assay with renal cancer cell lines is given as greater than 2 fold. This compound also registered a TGI with MDA-MB-231/ATCC (Breast, Table 1) of 2700 nM. Further, the GI50 in the assay with MDA-MB-231/ATCC (Homo sapiens, Breast, Table 1, read-out: GI50) came out at 748 nM; with MDA-MB-231/ATCC (Homo sapiens, breast cancer, comparison versus MS275, read-out: potency (quantity not named; values match GI50 of Table 1)), 750 nM. In addition, the CC50 with MDA-MB-231/ATCC (Homo sapiens, Breast, Table 1, read-out: LC50 (the source's name)) came to 19200 nM.

(Values after patent US20080234254A1, “Inhibitors of Histone Deacetylase” (UNIVERSITY OF LEEDS, priority 2004, published 2008).)
